Laboratory results reported in patent US6204002A, “Gangliosides having fluorescent-tagged ceramide moieties” (priority 1996, dated 2001).

What was measured:
[1] = format: physicochemical; details: densitometer, GM3 adhered to a microplate; insufficient to detect influenza virus
[2] = tested on: influenza virus A/Aichi/2/68 (H3N2); experiment: TLC/virus binding assay: binding activity of ganglioside to influenza virus

Structure (SMILES) | fluorescence of virus-bound compound in hydrophobic conditions [1] | sensitivity relative to conventional sialyl(α2-6)lactosylceramide [2] | relative measurement intensity (response of densitometer at 620 nm minus response at 430 nm) ([2]; 6 nmol ganglioside spotted on TLC plate, reference point set equal to 100, FIG. 1) | detection of influenza virus (sensitivity) ([2]; TLC/virus binding assay, A/Aichi/2/68 (H3N2)) | detection sensitivity relative to GM3 ([2]; according to FIG. 1, A/Aichi/2/68 (H3N2))
O=C1OC2(c3ccc(O)cc3Oc3cc(O)ccc32)c2ccccc21 [GM3 fluorescein] | very weak fluorescence |  |  |  | 
CCCCCCCCCCCCC/C=C/[C@@H](O)[C@H](CO[C@@H]1O[C@H](CO)[C@@H](O[C@@H]2O[C@H](CO[C@]3(C(=O)O)C[C@H](O)[C@@H](NC(C)=O)[C@H]([C@H](O)[C@H](O)CO)O3)[C@H](O)[C@H](O)[C@H]2O)[C@H](O)[C@H]1O)NC(=O)CCc1ccc(/C=C/C=C/C=C/c2ccccc2)cc1 [compound 3, O-(5-acetamide-3,5-dideoxy-D-glycero-α-D-galacto-2-nonuropyranosylonate)-(2→6)-O-(β-D-galactopyranosyl)-(1→4)-O-(β-D-glucopyranosyl)-(1→1)-(2S, 3R,4E)-2-(3-(p-(6-phenyl)1,3,5-hexatrienyl)phenylpropionamide)-4-octadecene-1,3-diol] |  | 4 times | 100% | very high sensitivity | 12 times
